Source: ChEMBL document CHEMBL1201862, “PubChem BioAssay data set” (2004)
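Assay format: 96-well plates, 48-hour exposure. At the GI50, growth is halved.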 The source made the active and inactive calls. Rule as the data show it: active = GI50 up to about 1.1 µM and inactive = higher.

Key:
Test in all cases: inhibition of tumour cell growth, NCI panel, 48 h
CAKI-1 = tested on: CAKI-1
SR = tested on: SR
NCI/ADR-RES = tested on: NCI/ADR-RES
MCF7 = tested on: MCF7
NCI-H522 = tested on: NCI-H522
HCC 2998 = tested on: HCC 2998
UO-31 = tested on: UO-31
PC-3 = tested on: PC-3
MDA-MB-435 = tested on: MDA-MB-435
RPMI-8226 = tested on: RPMI-8226
LOX IMVI = tested on: LOX IMVI
EKVX = tested on: EKVX
SK-MEL-2 = tested on: SK-MEL-2
MDA-N = tested on: MDA-N
SF-539 = tested on: SF-539
A498 = tested on: A498
OVCAR-5 = tested on: OVCAR-5
ACHN = tested on: ACHN
COLO 205 = tested on: COLO 205

Row | SMILES | GI50 (CAKI-1) | GI50 (SR) | GI50 (NCI/ADR-RES) | GI50 (MCF7) | GI50 (NCI-H522) | GI50 (HCC 2998) | GI50 (UO-31) | GI50 (PC-3) | GI50 (MDA-MB-435) | GI50 (RPMI-8226) | GI50 (LOX IMVI) | GI50 (EKVX) | GI50 (SK-MEL-2) | GI50 (MDA-N) | GI50 (SF-539) | GI50 (A498) | GI50 (OVCAR-5) | GI50 (ACHN) | GI50 (COLO 205)
1 | CC1=NN(C(=O)CC(=O)Nc2ccc(Cl)cc2)C(=O)C1/N=N\c1ccc(S(=O)(=O)c2ccc(/N=N/C3C(=O)N(C(=O)CC(=O)Nc4ccc(Cl)cc4)N=C3C)cc2)cc1 (stereo unspecified) | > 100 µM (inactive) | > 100 µM (inactive) | > 100 µM (inactive) | > 100 µM (inactive) | > 100 µM (inactive) | > 100 µM (inactive) | > 100 µM (inactive) | > 100 µM (inactive) | > 100 µM (inactive) | > 100 µM (inactive) | > 100 µM (inactive) | > 100 µM (inactive) | 51.9 µM (inactive) | > 100 µM (inactive) | > 100 µM (inactive) | > 100 µM (inactive) | 42.3 µM (inactive) | 24.7 µM (inactive) | > 100 µM (inactive)
2 | O=C1c2ccccc2-c2nnc3c(c21)Cc1ccccc1C3 | > 10 µM (inactive) | > 10 µM (inactive) | > 10 µM (inactive) | > 10 µM (inactive) | > 10 µM (inactive) | > 10 µM (inactive) | > 10 µM (inactive) | 9.53 µM (inactive) | > 10 µM (inactive) | > 10 µM (inactive) | > 10 µM (inactive) | > 10 µM (inactive) | > 10 µM (inactive) | > 10 µM (inactive) | > 10 µM (inactive) | > 10 µM (inactive) | > 10 µM (inactive) | > 10 µM (inactive) | > 10 µM (inactive)
3 | CC(NNC(=O)c1ccncc1)c1ccc(Cl)c(Cl)c1 (stereo unspecified) | > 100 µM (inactive) | 60.8 µM (inactive) | > 100 µM (inactive) | > 100 µM (inactive) | > 100 µM (inactive) | > 100 µM (inactive) | 54.6 µM (inactive) | 71.3 µM (inactive) | > 100 µM (inactive) | 75.5 µM (inactive) | > 100 µM (inactive) | > 100 µM (inactive) | > 100 µM (inactive) | 95.3 µM (inactive) | > 100 µM (inactive) | 69.3 µM (inactive) | > 100 µM (inactive) | > 100 µM (inactive) | > 100 µM (inactive)
4 | C=C1CC[C@@H]2[C@](C)(COC(=O)CCC(=O)O)CCC[C@@]2(C)[C@@H]1CCC1=CC(=O)OC1 | > 100 µM (inactive) | > 10 µM (inactive) | > 100 µM (inactive) | > 100 µM (inactive) | > 100 µM (inactive) | > 100 µM (inactive) | > 100 µM (inactive) | > 100 µM (inactive) | > 100 µM (inactive) | > 100 µM (inactive) | > 100 µM (inactive) | > 100 µM (inactive) | > 100 µM (inactive) | > 100 µM (inactive) | > 100 µM (inactive) | > 100 µM (inactive) | > 100 µM (inactive) | > 100 µM (inactive) | > 100 µM (inactive)
5 | CCC(=O)COc1ccc(NC(NC(=O)C(C(F)(F)F)C(F)(F)F)(C(F)(F)F)C(F)(F)F)cc1 | 36.1 µM (inactive) | 12.2 µM (inactive) | 18.9 µM (inactive) | 27.2 µM (inactive) | 18.4 µM (inactive) | > 100 µM (inactive) | 39.8 µM (inactive) | 48.1 µM (inactive) | 42.7 µM (inactive) | 16.9 µM (inactive) | 28.6 µM (inactive) | 49.2 µM (inactive) | 30.3 µM (inactive) | 28.3 µM (inactive) | 25.3 µM (inactive) | 60.4 µM (inactive) | 46.8 µM (inactive) | 33.5 µM (inactive) | 21.2 µM (inactive)
6 | COC(=O)/C(=C(\C)NC(C)=O)c1c(C(=O)OC)[nH]c2ccccc12 | > 100 µM (inactive) | > 100 µM (inactive) | > 100 µM (inactive) | > 100 µM (inactive) | 95.3 µM (inactive) | > 100 µM (inactive) | > 100 µM (inactive) | > 100 µM (inactive) | > 100 µM (inactive) | > 100 µM (inactive) | > 100 µM (inactive) | > 100 µM (inactive) | > 100 µM (inactive) | > 100 µM (inactive) | > 100 µM (inactive) | > 100 µM (inactive) | > 100 µM (inactive) | > 100 µM (inactive) | > 100 µM (inactive)
7 | CNC1C(OC2C(OC3C(O)C(O)C(O)C(O)C3O)OC(C)C2(O)CO)OC(CO)C(O)C1O.N=C(N)N.NC(=O)O (stereo unspecified) | – | > 100 µM (inactive) | > 100 µM (inactive) | > 100 µM (inactive) | > 100 µM (inactive) | > 100 µM (inactive) | > 100 µM (inactive) | > 100 µM (inactive) | > 100 µM (inactive) | > 100 µM (inactive) | > 100 µM (inactive) | > 100 µM (inactive) | > 100 µM (inactive) | > 100 µM (inactive) | > 100 µM (inactive) | > 100 µM (inactive) | > 100 µM (inactive) | > 100 µM (inactive) | > 100 µM (inactive)
8 | O=c1oc2cc(O)ccc2cc1-c1nc2ccccc2s1 | 22.9 µM (inactive) | 25.8 µM (inactive) | 18.7 µM (inactive) | 23.9 µM (inactive) | – | 27.5 µM (inactive) | 16.4 µM (inactive) | 22.8 µM (inactive) | 27.3 µM (inactive) | 11.5 µM (inactive) | 25.9 µM (inactive) | 27.2 µM (inactive) | 21.8 µM (inactive) | 19.1 µM (inactive) | 24.7 µM (inactive) | 19.6 µM (inactive) | 30.8 µM (inactive) | 22.5 µM (inactive) | 0.109 µM (active)
9 | COc1ccc(OC)c2sc(N3C(=O)/C(=C/Cc4ccco4)N=C3c3ccccc3)nc12 | 81.1 µM (inactive) | 19.4 µM (inactive) | 63.1 µM (inactive) | 17.7 µM (inactive) | – | > 100 µM (inactive) | 30.9 µM (inactive) | 24.5 µM (inactive) | 19.4 µM (inactive) | 15.5 µM (inactive) | 25.1 µM (inactive) | 66.8 µM (inactive) | 24.1 µM (inactive) | 19.6 µM (inactive) | 53.5 µM (inactive) | 66.2 µM (inactive) | > 100 µM (inactive) | 26.7 µM (inactive) | 50.5 µM (inactive)
10 | C[C@]12CC[C@H]3[C@@H](CCC4=CC(=O)CC[C@@H]43)[C@@H]1CC[C@]2(O)C(N)=O | – | > 100 µM (inactive) | > 100 µM (inactive) | > 100 µM (inactive) | > 100 µM (inactive) | > 100 µM (inactive) | > 100 µM (inactive) | > 100 µM (inactive) | > 100 µM (inactive) | > 100 µM (inactive) | > 100 µM (inactive) | > 100 µM (inactive) | > 100 µM (inactive) | > 100 µM (inactive) | > 100 µM (inactive) | > 100 µM (inactive) | > 100 µM (inactive) | > 100 µM (inactive) | > 100 µM (inactive)
